Test system: BRE reporter (SMAD1/5/8 dependent) in SW1353 chondrocytic cells
Experiment: BRE firefly luciferase reporter assay
Type: cell-based
Details: 8 h peptide exposure, firefly normalized to Gaussia luciferase, relative to control (Figure 5B)
Description: Figure 5 Molecular characterization of peptides p[63−82] and p[113−132] (A) A pool of OA-HACs (n = 4 donors) was transfected with a scrambled siRNA or with an NKX3-2 siRNA (100 nM siRNA) and cultured for 24 h. Cultures were then exposed to peptide p[63−82] or p[113−132] (100 nM peptide). Samples were harvested 24 h later and analyzed for the expression of the indicated mRNAs (normalized to 28S rRNA). (B) SW1353 chondrocytic cells were transfected with BRE (SMAD1/5/8 reporter) or CAGA12 (SMAD2/3 reporter) firefly luciferase-reporter plasmids. A CMV-Gaussia plasmid was cotransfected as a transfection control. Cells were then cultured for 24 h and subsequently exposed to control, p[63−82], or p[113−132] for 8 h. Firefly and Gaussia bioluminescence were measured in cells and medium (respectively), and relative light units (RLUs) of firefly luciferase were normalized for the Gaussia luciferase signal. The normalized firefly luciferase signal of the control condition was set at 1, and peptide conditions were calculated relative to the control condition (FL/GL). Error bars represent mean ± SEM; statistical significance for peptide conditions versus siScrambled or siNKX3-2 (A) or control condition (B) as determined by unpaired two-tailed Student’s t test is represented as ∗p < 0.05, ∗∗p < 0.01, and ∗∗∗p < 0.001. […]

Substance	BRE reporter activity
H-SVLYFDDSSNVILKKYRNMV-OH [p[113−132]]	induce
H-AAYYSEGESAFPLNSYMNAT-OH [p[63−82]]	induce
